Test results from the supplement of paper PMC6045584.
± gives the standard deviation of the averaged measurements.

The test systems below were run with C[C@]1(O)C[C@@H](c2nc(-c3ccc4ccc(-c5ccccc5)nc4c3)c3c(N)nccn32)C1 [OSI-906] (assay: surviving fraction relative to DMSO-only wells; higher = less growth inhibition). Settings: 0.5 nM; exposure time: 5 days.
Procedure, shortened: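 For each tumour cell line, log-phase cells were put into 384-well plates at 250–500 cells per well, then after 24 hours exposed continuously for five days to inhibitors at 0.5, 1, 5, 10, 50, 100, 500 and 1000 nM. Viability was assessed by CellTiter-Glo luminescence, with surviving fraction expressed relative to the median of DMSO-only wells. Lines were screened three times and retained only if replicate Pearson r exceeded 0.7 and median Z' exceeded 0.3.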
With CADOES1 SOFT TISSUE the surviving fraction was 1.025 ± 0.0076.
SAOS2 BONE showed a surviving fraction of 0.82 ± 0.027.
For MDAMB436 BREAST, the surviving fraction was 0.805 ± 0.047.
Test System 93VU HEADNECK has a surviving fraction of 0.821 ± 0.057.
KPD BONE was tested, and the surviving fraction was 0.958 ± 0.037.
Test System SYO1 SYNOVIAL has a surviving fraction of 0.795 ± 0.048.
BT20 BREAST gave a surviving fraction of 0.736 ± 0.051.
SUM44 BREAST was tested, and the surviving fraction was 0.844 ± 0.044.
CAL120 BREAST gave a surviving fraction of 0.895 ± 0.052.
In the case of CHLA90 AUTONOMIC GANGLIA, the surviving fraction is reported as 0.883 ± 0.046.
HCC1806 BREAST gave a surviving fraction of 0.722 ± 0.032.
In the case of HCC78 LUNG, the surviving fraction is reported as 0.712 ± 0.28.
MFM223 BREAST was tested, and the surviving fraction was 0.716 ± 0.049.
SG43 HEADNECK gave a surviving fraction of 1.21 ± 0.074.
With HOS BONE the surviving fraction was 0.9287 ± 0.0055.
For MDAMB468 BREAST, the surviving fraction was 0.867 ± 0.12.
In the case of SG27 HEADNECK, the surviving fraction is reported as 1.1 ± 0.12.
With ZR751 BREAST the surviving fraction was 0.893 ± 0.058.
Test System HSSYII SYNOVIAL has a surviving fraction of 0.8472 ± 0.0081.
For MG63 BONE, the surviving fraction was 0.9333 ± 0.0045.
Work on HS57T BREAST yielded a surviving fraction of 0.862 ± 0.014.
Work on SUM159 BREAST yielded a surviving fraction of 0.9647 ± 0.0076.
In the case of HCC1395 BREAST, the surviving fraction is reported as 0.851 ± 0.028.
In the case of SUM149.B1*.S BREAST, the surviving fraction is reported as 0.935 ± 0.025.
For MDAMB453 BREAST, the surviving fraction was 1.03 ± 0.03.
SCC90 HEADNECK was tested, and the surviving fraction was 0.88 ± 0.033.
In the case of HMLE3 BREAST, the surviving fraction is reported as 0.808 ± 0.068.
HCC70 BREAST was tested, and the surviving fraction was 0.861 ± 0.13.
Work on LNCAP PROSTATE yielded a surviving fraction of 1.12 ± 0.058.
Test System HCT15 LARGE INTESTINE has a surviving fraction of 0.829 ± 0.073.
In the case of MHM BONE, the surviving fraction is reported as 0.996 ± 0.021.
VCAP PROSTATE gave a surviving fraction of 0.908 ± 0.023.

Same assay, conditions: 1 nM; exposure time: 5 days
Work on CADOES1 SOFT TISSUE yielded a surviving fraction of 1.04 ± 0.024.
Test System SAOS2 BONE has a surviving fraction of 0.858 ± 0.013.
MDAMB436 BREAST was tested, and the surviving fraction was 0.875 ± 0.055.
With 93VU HEADNECK the surviving fraction was 0.793 ± 0.053.
KPD BONE showed a surviving fraction of 0.978 ± 0.051.
SYO1 SYNOVIAL gave a surviving fraction of 0.814 ± 0.044.
Test System BT20 BREAST has a surviving fraction of 0.724 ± 0.058.
SUM44 BREAST showed a surviving fraction of 0.878 ± 0.1.
CAL120 BREAST showed a surviving fraction of 0.907 ± 0.054.
CHLA90 AUTONOMIC GANGLIA showed a surviving fraction of 0.904 ± 0.019.
With HCC1806 BREAST the surviving fraction was 0.721 ± 0.093.
With HCC78 LUNG the surviving fraction was 0.809 ± 0.2.
With MFM223 BREAST the surviving fraction was 0.791 ± 0.1.
Test System SG43 HEADNECK has a surviving fraction of 1.18 ± 0.13.
HOS BONE was tested, and the surviving fraction was 0.9223 ± 0.0065.
Test System MDAMB468 BREAST has a surviving fraction of 0.833 ± 0.13.
Test System SG27 HEADNECK has a surviving fraction of 1.08 ± 0.064.
With ZR751 BREAST the surviving fraction was 0.857 ± 0.08.
HSSYII SYNOVIAL gave a surviving fraction of 0.85 ± 0.027.
MG63 BONE showed a surviving fraction of 0.919 ± 0.025.
Test System HS57T BREAST has a surviving fraction of 0.89 ± 0.068.
SUM159 BREAST gave a surviving fraction of 0.948 ± 0.021.
In the case of HCC1395 BREAST, the surviving fraction is reported as 0.962 ± 0.13.
With SUM149.B1*.S BREAST the surviving fraction was 0.927 ± 0.032.
MDAMB453 BREAST gave a surviving fraction of 1.03 ± 0.016.
For SCC90 HEADNECK, the surviving fraction was 0.822 ± 0.075.
Test System HMLE3 BREAST has a surviving fraction of 0.887 ± 0.071.
For HCC70 BREAST, the surviving fraction was 1.02 ± 0.099.
Work on LNCAP PROSTATE yielded a surviving fraction of 1.07 ± 0.095.
HCT15 LARGE INTESTINE gave a surviving fraction of 0.82 ± 0.048.
With MHM BONE the surviving fraction was 0.978 ± 0.026.
VCAP PROSTATE was tested, and the surviving fraction was 0.867 ± 0.039.

Same assay, conditions: 5 nM; exposure time: 5 days
For CADOES1 SOFT TISSUE, the surviving fraction was 0.957 ± 0.096.
Work on SAOS2 BONE yielded a surviving fraction of 0.804 ± 0.085.
In the case of MDAMB436 BREAST, the surviving fraction is reported as 0.887 ± 0.17.
Work on 93VU HEADNECK yielded a surviving fraction of 0.836 ± 0.041.
Work on KPD BONE yielded a surviving fraction of 0.9457 ± 0.0072.
In the case of SYO1 SYNOVIAL, the surviving fraction is reported as 0.832 ± 0.023.
For BT20 BREAST, the surviving fraction was 0.776 ± 0.05.
With SUM44 BREAST the surviving fraction was 0.948 ± 0.047.
With CAL120 BREAST the surviving fraction was 0.937 ± 0.041.
CHLA90 AUTONOMIC GANGLIA gave a surviving fraction of 0.862 ± 0.036.
For HCC1806 BREAST, the surviving fraction was 0.783 ± 0.11.
For HCC78 LUNG, the surviving fraction was 0.954 ± 0.15.
MFM223 BREAST gave a surviving fraction of 0.768 ± 0.092.
With SG43 HEADNECK the surviving fraction was 0.829 ± 0.025.
Work on HOS BONE yielded a surviving fraction of 0.939 ± 0.019.
Work on MDAMB468 BREAST yielded a surviving fraction of 0.95 ± 0.032.
Test System SG27 HEADNECK has a surviving fraction of 0.916 ± 0.071.
ZR751 BREAST gave a surviving fraction of 0.879 ± 0.1.
HSSYII SYNOVIAL gave a surviving fraction of 0.9002 ± 0.0069.
Work on MG63 BONE yielded a surviving fraction of 0.989 ± 0.033.
HS57T BREAST was tested, and the surviving fraction was 0.869 ± 0.047.
Test System SUM159 BREAST has a surviving fraction of 0.964 ± 0.021.
HCC1395 BREAST showed a surviving fraction of 0.977 ± 0.095.
SUM149.B1*.S BREAST showed a surviving fraction of 0.92 ± 0.041.
In the case of MDAMB453 BREAST, the surviving fraction is reported as 1.077 ± 0.0087.
For SCC90 HEADNECK, the surviving fraction was 0.89 ± 0.096.
With HMLE3 BREAST the surviving fraction was 0.931 ± 0.045.
For HCC70 BREAST, the surviving fraction was 1.04 ± 0.081.
LNCAP PROSTATE gave a surviving fraction of 1.07 ± 0.036.
HCT15 LARGE INTESTINE showed a surviving fraction of 0.811 ± 0.069.
Test System MHM BONE has a surviving fraction of 1.03 ± 0.025.
For VCAP PROSTATE, the surviving fraction was 0.962 ± 0.028.

Same assay, conditions: 10 nM; exposure time: 5 days
In the case of CADOES1 SOFT TISSUE, the surviving fraction is reported as 1.02 ± 0.036.
SAOS2 BONE showed a surviving fraction of 0.838 ± 0.045.
With MDAMB436 BREAST the surviving fraction was 0.828 ± 0.054.
93VU HEADNECK was tested, and the surviving fraction was 0.809 ± 0.13.
KPD BONE showed a surviving fraction of 0.952 ± 0.097.
In the case of SYO1 SYNOVIAL, the surviving fraction is reported as 0.824 ± 0.058.
Test System BT20 BREAST has a surviving fraction of 0.763 ± 0.073.
Work on SUM44 BREAST yielded a surviving fraction of 0.8813 ± 0.0072.
With CAL120 BREAST the surviving fraction was 0.942 ± 0.026.
CHLA90 AUTONOMIC GANGLIA gave a surviving fraction of 0.828 ± 0.08.
For HCC1806 BREAST, the surviving fraction was 0.822 ± 0.03.
With HCC78 LUNG the surviving fraction was 0.94 ± 0.15.
For MFM223 BREAST, the surviving fraction was 0.811 ± 0.15.
In the case of SG43 HEADNECK, the surviving fraction is reported as 0.987 ± 0.12.
In the case of HOS BONE, the surviving fraction is reported as 0.911 ± 0.014.
MDAMB468 BREAST gave a surviving fraction of 0.955 ± 0.092.
SG27 HEADNECK gave a surviving fraction of 0.966 ± 0.059.
In the case of ZR751 BREAST, the surviving fraction is reported as 0.847 ± 0.069.
HSSYII SYNOVIAL gave a surviving fraction of 0.798 ± 0.021.
For MG63 BONE, the surviving fraction was 0.963 ± 0.012.
With HS57T BREAST the surviving fraction was 0.902 ± 0.052.
For SUM159 BREAST, the surviving fraction was 0.944 ± 0.036.
For HCC1395 BREAST, the surviving fraction was 0.949 ± 0.027.
For SUM149.B1*.S BREAST, the surviving fraction was 0.926 ± 0.025.
MDAMB453 BREAST was tested, and the surviving fraction was 1.06 ± 0.021.
SCC90 HEADNECK was tested, and the surviving fraction was 0.883 ± 0.026.
HMLE3 BREAST gave a surviving fraction of 0.841 ± 0.0091.
In the case of HCC70 BREAST, the surviving fraction is reported as 1.02 ± 0.055.
LNCAP PROSTATE gave a surviving fraction of 1.11 ± 0.018.
HCT15 LARGE INTESTINE showed a surviving fraction of 0.871 ± 0.086.
For MHM BONE, the surviving fraction was 0.999 ± 0.032.
VCAP PROSTATE was tested, and the surviving fraction was 0.999 ± 0.14.
